For experiment [1], the target named is T1, CDK2/CyclinA (Homo sapiens, UniProt P24941).
T1 construct: purchased Upstate Biotechnology
In words: CDK2 kinase inhibitory activity (Example 306, Protocol A or B). It counts as biochemical. To be noted: for pIC50: protocol of Example 306, read-out: IC50 (CDK inhibitory activity); for inhibition at 0.003 µM: read-out: % inhibition (CDK inhibitory activity). As to the method:
Compounds of the invention were tested for kinase inhibitory activity using either Protocol A or Protocol B.
1.7 μl of active CDK2/CyclinA (Upstate Biotechnology, 10 U/μl) is diluted in assay buffer (250 μl of 10× strength assay buffer (200 mM MOPS pH 7.2, 250 mM β-glycerophosphate, 50 mM EDTA, 150 mM MgCl2), 11.27 μl 10 mM ATP, 2.5 μl 1M DTT, 25 μl 100 mM sodium orthovanadate, 708.53 μl H2O), and 10 μl mixed with 10 μl of histone substrate mix (60 μl bovine histone H1 (Upstate Biotechnology, 5 mg/ml), 940 μl H2O, 35 μCi γ^33P-ATP) and added to 96 well plates along with 5 μl of various dilutions of the test compound in DMSO (up to 2.5%). The reaction is allowed to proceed for 5 hours before being stopped with an excess of ortho-phosphoric acid (30 μl at 2%).
γ^33P-ATP which remains unincorporated into the histone H1 is separated from phosphorylated histone H1 on a Millipore MAPH filter plate. The wells of the MAPH plate are wetted with 0.5% orthophosphoric acid, and then the results of the reaction are filtered with a Millipore vacuum filtration unit through the wells. Following filtration, the residue is washed twice with 200 μl of 0.5% orthophosphoric acid. Once the filters have dried, 25 μl of Microscint 20 scintillant is added, and then counted on a Packard Topcount for 30 seconds.
The % inhibition of the CDK2 activity is calculated and plotted in order to determine the concentration of test compound required to inhibit 50% of the CDK2 activity (IC50).
Activated CDK2/CyclinA (Brown et al, Nat. Cell Biol., 1, pp 438-443, 1999; Lowe, E. D., et al Biochemistry, 41, pp 15625-15634, 2002) is diluted to 125 pM in 2.5× strength assay buffer (50 mM MOPS pH 7.2, 62.5 mM O-glycerophosphate, 12.5 mM EDTA, 37.5 mM MgCl2, […], 2.5 mM DTT, 2.5 mM sodium orthovanadate, 0.25 mg/ml bovine serum albumin), and 10 fi mixed with 10 A1 of histone substrate mix (60 μl bovine histone H1 (Upstate Biotechnology, 5 mg/ml), 940 μl H2O, 35 μCi γ^33P-ATP) and added to 96 well plates along with 5 μl of various dilutions of the test compound in DMSO (up to 2.5%). The reaction is allowed to proceed for 2 to 4 hours before being stopped with an excess of ortho-phosphoric acid (5 μl at 2%).
γ^33P-ATP which remains unincorporated into the histone H1 is separated from phosphorylated histone H1 on a Millipore MAPH filter plate. The wells of the MAPH plate are wetted with 0.5% orthophosphoric acid, and then the results of the reaction are filtered with a Millipore vacuum filtration unit through the wells. Following filtration, the residue is washed twice with 200 μl of 0.5% orthophosphoric acid. Once the filters have dried, 20 μl of Microscint 20 scintillant is added, and then counted on a Packard Topcount for 30 seconds.

In experiment [2] the test system is HCT-116 cell line. In words: Anti-proliferative activity, inhibition of cell growth (Alamar Blue assay). The experiment is classed as cell-based. The conditions noted are these: Homo sapiens, 72 hours with compound. As to the method:
The anti-proliferative activity of the compounds of the invention has been determined by measuring inhibition of cell growth in the HCT-116 cell line.
The anti-proliferative activities of compounds of the invention were determined by measuring the ability of the compounds to inhibition of cell growth in a number of cell lines. Inhibition of cell growth was measured using the Alamar Blue assay (Nociari, M. M, Shalev, A., Benias, P., Russo, C. Journal of Immunological Methods 1998, 213, 157-167). The method is based on the ability of viable cells to reduce resazurin to its fluorescent product resorufin. For each proliferation assay cells were plated onto 96 well plates and allowed to recover for 16 hours prior to the addition of inhibitor compounds for a further 72 hours. At the end of the incubation period 10% (v/v) Alamar Blue was added and incubated for a further 6 hours prior to determination of fluorescent product at […]. In the case of the non-proliferating cell assay cells were maintained at confluence for 96 hour prior to the addition of inhibitor compounds for a further 72 hours. The number of viable cells was determined by Alamar Blue assay as before. All cell lines were obtained from ECACC (European Collection of cell Cultures).

Experiment [3] addresses CDK1/cyclinB (Homo sapiens, UniProt P06493). In words: CDK selectivity assay, CDK1. The conditions noted are these: read-out: IC50 against CDK 1. The experiment is classed as biochemical. Here is the method: (§1) Compounds of the invention were tested for kinase inhibitory activity against a number of different kinases using the general protocol described in Example 129, but modified as set out below.
(§2) Kinases are diluted to a 10× working stock in 20 mM MOPS pH 7.0, 1 mM EDTA, 0.1% γ-mercaptoethanol, 0.01% Brij-35, 5% glycerol, 1 mg/ml BSA. One unit equals the incorporation of 1 nmol of phosphate per minute into 0.1 mg/ml histone H1, or CDK7 substrate peptide at […] with a final ATP concentration of 100 uM.
(§3) The substrate for all the CDK assays (except CDK7) is histone H1, diluted to 10× working stock in 20 mM MOPS pH 7.4 prior to use. The substrate for CDK7 is a specific peptide diluted to 10× working stock in deionised water.
(§4) Assay Procedure for CDK1/cyclinB, CDK2/cyclinA. CDK2/cyclinE, CDK3/cyclinE, CDK5/p35. CDK6/cyclinD3:
(§5) In a final reaction volume of 25 μl, the enzyme (5-10 mU) is incubated with 8 mM MOPS pH 7.0, 0.2 mM EDTA, 0.1 mg/ml histone H1, 10 mM MgAcetate and [γ-^33P-ATP] (specific activity approx 500 cpm/pmol, concentration as required). The reaction is initiated by the addition of Mg^2+ [γ-^33P-ATP]. After incubation for 40 minutes at room temperature the reaction is stopped by the addition of 5 μl of a 3% phosphoric acid solution. 10 ml of the reaction is spotted onto a P30 filter mat and washed 3 times for 5 minutes in 75 mM phosphoric acid and once in methanol prior to drying and counting.

The target of experiment [4] is CDK3/cyclinE (Homo sapiens, UniProt Q00526). In words: CDK selectivity assay, CDK3. The experiment is classed as biochemical. The conditions noted are these: read-out: IC50 against CDK 3. Here is the method:
as §1, §2, §3, §4, §5

The target of experiment [5] is GSK3β (human) (Homo sapiens, UniProt P49841). Briefly: Inhibitory activity against glycogen synthase kinase-3 (GSK-3). It counts as biochemical. The conditions noted are these: read-out: IC50 against GSK30. Here is the method:
GSK3β (human) is diluted to a 10× working stock in 50 mM Tris pH 7.5, 0.1 mM EGTA, 0.1 mM sodium vanadate, 0.1% β-mercaptoethanol, 1 mg/ml BSA. One unit equals the incorporation of 1 nmol of phosphate per minute phospho-glycogen synthase peptide 2 per minute.
as §5, with “GSK3β” for “the enzyme”, “MOPS” for “MOPS pH”, “20 μM […](p)EDEEE (phospho GS2 peptide),” for “0.1 mg/ml histone H1,”, “Mg^2+[γ-^33P-ATP].” for “Mg^2+ [γ-^33P-ATP].”, “μl” for “ml”, “50” for “75”

Experiment [6] has as its target CDK5/p35 (Homo sapiens, UniProt Q00535). In words: CDK selectivity assay, CDK5. The experiment is classed as biochemical. The conditions noted are these: read-out: IC50 against CDK 5. As to the method:
as §1, §2, §3, §4, §5

pIC50: −log10 of the molar value.

Sequence of CDK1/cyclinB (P06493 whole entry): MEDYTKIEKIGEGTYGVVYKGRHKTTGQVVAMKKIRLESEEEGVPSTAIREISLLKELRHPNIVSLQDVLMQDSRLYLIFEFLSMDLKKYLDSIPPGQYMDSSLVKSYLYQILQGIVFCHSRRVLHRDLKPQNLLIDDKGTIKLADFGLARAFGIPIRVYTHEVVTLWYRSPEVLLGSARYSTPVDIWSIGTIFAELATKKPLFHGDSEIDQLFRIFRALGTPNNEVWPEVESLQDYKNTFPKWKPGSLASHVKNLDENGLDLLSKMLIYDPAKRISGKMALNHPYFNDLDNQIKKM
Sequence of CDK1/cyclinB (P14635 whole entry partner): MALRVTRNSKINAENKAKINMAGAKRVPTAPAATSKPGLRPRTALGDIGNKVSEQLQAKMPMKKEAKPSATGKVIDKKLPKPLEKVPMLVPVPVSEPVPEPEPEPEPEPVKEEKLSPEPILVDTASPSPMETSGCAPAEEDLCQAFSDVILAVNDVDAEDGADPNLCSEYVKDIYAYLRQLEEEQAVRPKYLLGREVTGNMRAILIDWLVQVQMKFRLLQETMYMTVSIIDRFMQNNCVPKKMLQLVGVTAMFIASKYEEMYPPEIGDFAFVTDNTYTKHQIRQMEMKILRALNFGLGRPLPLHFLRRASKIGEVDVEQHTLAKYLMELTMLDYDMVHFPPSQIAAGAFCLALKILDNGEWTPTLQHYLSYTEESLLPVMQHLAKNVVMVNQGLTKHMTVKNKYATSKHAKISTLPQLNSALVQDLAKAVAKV
Sequence of CDK3/cyclinE (Q00526 whole entry): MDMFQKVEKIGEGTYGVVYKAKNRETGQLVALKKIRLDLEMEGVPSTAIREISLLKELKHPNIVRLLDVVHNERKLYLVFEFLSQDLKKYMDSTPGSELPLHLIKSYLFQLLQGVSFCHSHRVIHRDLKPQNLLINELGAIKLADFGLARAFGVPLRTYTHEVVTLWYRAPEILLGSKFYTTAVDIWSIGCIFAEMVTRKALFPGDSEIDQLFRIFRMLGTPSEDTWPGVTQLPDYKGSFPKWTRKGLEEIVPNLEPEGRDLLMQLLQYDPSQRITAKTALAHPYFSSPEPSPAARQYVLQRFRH
Sequence of CDK3/cyclinE (P24864 whole entry partner): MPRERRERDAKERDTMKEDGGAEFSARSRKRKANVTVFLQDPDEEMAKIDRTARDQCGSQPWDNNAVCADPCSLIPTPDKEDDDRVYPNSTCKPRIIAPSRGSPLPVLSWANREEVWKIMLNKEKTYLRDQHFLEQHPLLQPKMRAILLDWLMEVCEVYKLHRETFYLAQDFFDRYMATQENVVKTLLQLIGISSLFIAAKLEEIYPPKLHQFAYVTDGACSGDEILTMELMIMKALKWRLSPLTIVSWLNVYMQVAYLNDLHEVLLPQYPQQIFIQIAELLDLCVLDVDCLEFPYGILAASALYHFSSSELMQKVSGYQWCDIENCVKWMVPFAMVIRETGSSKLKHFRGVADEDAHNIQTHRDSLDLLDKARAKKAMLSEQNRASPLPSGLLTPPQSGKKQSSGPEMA
Sequence of CDK5/p35 (Q00535 whole entry): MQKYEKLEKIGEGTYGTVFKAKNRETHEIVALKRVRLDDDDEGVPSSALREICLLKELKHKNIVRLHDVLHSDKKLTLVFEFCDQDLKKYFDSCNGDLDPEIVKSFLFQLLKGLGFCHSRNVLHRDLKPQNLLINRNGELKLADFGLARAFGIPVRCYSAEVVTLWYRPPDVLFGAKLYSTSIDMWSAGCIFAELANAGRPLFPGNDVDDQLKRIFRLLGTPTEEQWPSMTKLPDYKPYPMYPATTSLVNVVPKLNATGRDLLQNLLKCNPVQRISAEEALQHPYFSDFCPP
Sequence of CDK5/p35 (Q15078 whole entry partner): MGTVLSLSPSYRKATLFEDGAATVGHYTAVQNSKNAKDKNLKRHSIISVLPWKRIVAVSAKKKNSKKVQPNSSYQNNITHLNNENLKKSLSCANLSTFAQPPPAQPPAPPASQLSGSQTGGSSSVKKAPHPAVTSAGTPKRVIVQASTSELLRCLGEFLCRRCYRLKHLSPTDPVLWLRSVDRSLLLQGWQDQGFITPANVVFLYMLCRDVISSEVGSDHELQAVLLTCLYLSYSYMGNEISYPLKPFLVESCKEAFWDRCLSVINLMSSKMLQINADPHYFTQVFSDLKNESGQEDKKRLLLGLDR
Sequence of GSK3β (human) (P49841 whole entry): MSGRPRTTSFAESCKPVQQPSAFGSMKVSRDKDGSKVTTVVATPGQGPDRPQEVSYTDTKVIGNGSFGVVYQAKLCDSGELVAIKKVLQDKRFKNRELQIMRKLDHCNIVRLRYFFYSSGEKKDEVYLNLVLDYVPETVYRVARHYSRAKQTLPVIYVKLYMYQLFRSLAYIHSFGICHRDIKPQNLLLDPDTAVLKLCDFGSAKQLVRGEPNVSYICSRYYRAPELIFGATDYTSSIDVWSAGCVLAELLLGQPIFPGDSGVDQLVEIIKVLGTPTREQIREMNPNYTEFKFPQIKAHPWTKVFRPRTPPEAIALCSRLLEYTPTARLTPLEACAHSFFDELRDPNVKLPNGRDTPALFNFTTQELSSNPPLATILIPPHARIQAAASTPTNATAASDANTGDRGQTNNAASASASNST

For the molecule `O=C(Nc1c[nH]nc1-c1nc2ccccc2[nH]1)c1ccccc1` [Compound A, reference compound], the pIC50 in experiment [1] was 7.01.

Regarding `Cc1ccc(C(=O)Nc2c[nH]nc2-c2nc3cc(C)c(C)cc3[nH]2)cc1` [Compound B, reference compound], the pIC50 is 5.52 in experiment [1] and 5.24 in experiment [2].

`O=C(Nc1c[nH]nc1-c1nc2ccccc2[nH]1)c1c(F)cccc1F` [Example 6, N-[3-(1H-Benzimidazol-2-yl)-1H-pyrazol-4-yl]-2,6-difluoro-benzamide]: the pIC50 in experiment [3] was greater than 6.00; in experiment [1] it was 8.32; in experiment [4], greater than 6.00; in experiment [5], greater than 6.00; in experiment [6] it was greater than 6.00.

On to `O=C(Nc1c[nH]nc1-c1nc2c(CN3CCOCC3)cccc2[nH]1)c1c(F)cccc1F` [Example 12, 2,6-Difluoro-N-[3-(4-morpholin-4-yl-methyl-1H-benzimidazol-2-yl)-1H-pyrazol-4-yl]-benzamide], for which the pIC50 in experiment [3], in experiment [4], in experiment [5] and in experiment [6] was greater than 6.00 each time.

On to `CN1CCN(Cc2cccc3[nH]c(-c4n[nH]cc4NC(=O)c4c(F)cccc4F)nc23)CC1` [Example 13, 2,6-Difluoro-N-[3-(N-methyl-piperazinyl-4-ylmethyl-1H-benzimidazol-2-yl)-1H-pyrazol-4-yl]-benzamide], for which the negative-log IC50 (pIC50) in experiment [3], in experiment [4] and in experiment [6] was greater than 6.00 throughout.

Regarding `CC(C)(C)NCc1cccc2[nH]c(-c3n[nH]cc3NC(=O)c3c(F)cccc3F)nc12` [Example 14, N-{3-[4-(tert-Butylamino-methyl)-1H-benzimidazol-2-yl]-1H-pyrazol-4-yl}-2,6-difluoro-benzamide], the pIC50 in experiment [3], in experiment [4] and in experiment [6] was greater than 6.00 each time.

Regarding `CN1CCN(C(=O)c2ccc3[nH]c(-c4n[nH]cc4NC(=O)c4c(F)cccc4F)nc3c2)CC1` [Example 21, 2,6-Difluoro-N-{3-[5-(4-methyl-piperazine-1-carbonyl)-1H-benzimidazol-2-yl]-1H-pyrazol-4-yl}-benzamide], the pIC50 in experiment [3], in experiment [4] and in experiment [6] was greater than 6.00 throughout.

In the case of `COc1cc(F)c(C(=O)Nc2c[nH]nc2-c2nc3ccccc3[nH]2)c(F)c1` [Example 41], the pIC50 in experiment [3], in experiment [4] and in experiment [6] was greater than 6.00 in each case.

`O=C(Nc1c[nH]nc1-c1nc2ccccc2[nH]1)c1c(F)cccc1Cl` [Example 43]: the inhibition at 0.003 µM in experiment [1] amounted to 52%.

`COc1cccc(F)c1C(=O)Nc1c[nH]nc1-c1nc2ccccc2[nH]1` [Example 44]: in experiment [1], the inhibition at 0.003 µM was found to be 57%.

Take `O=C(Nc1c[nH]nc1-c1nc2ccccc2[nH]1)c1c(F)cc(F)cc1F` [Example 56]: the inhibition at 0.003 µM in experiment [1] was 58%.

As for `Cc1cccc(Cl)c1C(=O)Nc1c[nH]nc1-c1nc2ccccc2[nH]1` [Example 57], in experiment [1], the inhibition at 0.003 µM is 41%.

Regarding `O=C(Nc1c[nH]nc1-c1nc2ccccc2[nH]1)c1c(Cl)cccc1Cl` [Example 59], the inhibition at 0.003 µM in experiment [1] is 67%.

For `Cc1cc2nc(-c3n[nH]cc3NC(=O)c3c(F)cccc3F)[nH]c2cc1C` [Example 73], the results for the pIC50 in experiment [1] and in experiment [2] were 8.34 and 6.31, respectively.

The values above are taken from patent US7977477B2, “Benzimidazole derivatives and their use as protein kinase inhibitors” (Astex Therapeutics, Limited, priority 2003, dated 2011).
